Where two headings read alike, the source gives them in different places.

Assay [1] concerns the target GDP-bound NRAS wild-type protein (Homo sapiens, UniProt P01111). Put plainly: Binding to NRAS by surface plasmon resonance (SPR), Single Cycle Kinetics. The note with it: for NRAS/KRAS (ratio of KD value for NRAS to KD value for KRAS) / ratio of the KD value with respect to GDP-bound NRAS wild-type protein to the KD value with respect to KRAS: SPR; for NRAS/KRAS (ratio of KD value for NRAS to KD value for KRAS): GDP-bound NRAS wild-type protein vs GDP-bound KRAS wild-type protein. On the technique in general: SPR reads the build-up and loss of mass on a sensor chip optically.

In assay [2] the target is GDP-bound HRAS wild-type protein (Homo sapiens, UniProt P01112). Put plainly: Binding to HRAS by surface plasmon resonance (SPR), Single Cycle Kinetics. To be noted: for HRAS/KRAS (ratio of KD value for HRAS to KD value for KRAS) / ratio of the KD value with respect to GDP-bound HRAS wild-type protein to the KD value with respect to KRAS: SPR; for HRAS/KRAS (ratio of KD value for HRAS to KD value for KRAS): GDP-bound HRAS wild-type protein vs GDP-bound KRAS wild-type protein.

Assay [3] concerns the target GDP-bound KRAS wild-type protein (Homo sapiens, UniProt P01116). In words: Binding to KRAS by surface plasmon resonance (SPR), Single Cycle Kinetics.
Assay [4] relates to human lung cancer strain NCI-H441.
The mark [5] stands for this setting: SPR, Single Cycle Kinetics, GDP-bound KRAS wild-type protein, read-out: KRAS KD.
Setting [6] is: SPR, Single Cycle Kinetics, 1:1 binding model, GDP-bound KRAS wild-type protein, read-out: KRAS KD.
Where [7] appears, read: SPR, Single Cycle Kinetics, 1:1 binding model, read-out: KD value with respect to GDP-bound KRAS wild-type protein.
The mark [8] stands for this setting: read-out: NCI-H441 cell proliferation inhibitory activity, 50% proliferation inhibitory concentration (IC50 value), NCI-H441, four days, CellTiter-Glo.
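For IC50 in this document: cell proliferation inhibition after four days measured by CellTiter-Glo.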

Sequence of GDP-bound KRAS wild-type protein (P01116 whole entry): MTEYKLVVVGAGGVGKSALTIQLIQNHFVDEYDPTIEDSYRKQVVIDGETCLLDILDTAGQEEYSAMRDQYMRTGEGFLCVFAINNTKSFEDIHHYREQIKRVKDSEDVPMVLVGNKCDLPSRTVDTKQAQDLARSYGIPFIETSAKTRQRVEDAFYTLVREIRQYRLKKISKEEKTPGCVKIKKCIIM
Sequence of GDP-bound NRAS wild-type protein (P01111 whole entry): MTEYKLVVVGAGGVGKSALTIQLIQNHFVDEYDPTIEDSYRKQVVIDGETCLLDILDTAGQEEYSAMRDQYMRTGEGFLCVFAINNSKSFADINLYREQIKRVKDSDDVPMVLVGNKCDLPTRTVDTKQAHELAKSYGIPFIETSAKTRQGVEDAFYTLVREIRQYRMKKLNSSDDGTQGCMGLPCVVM
Sequence of GDP-bound HRAS wild-type protein (P01112 whole entry): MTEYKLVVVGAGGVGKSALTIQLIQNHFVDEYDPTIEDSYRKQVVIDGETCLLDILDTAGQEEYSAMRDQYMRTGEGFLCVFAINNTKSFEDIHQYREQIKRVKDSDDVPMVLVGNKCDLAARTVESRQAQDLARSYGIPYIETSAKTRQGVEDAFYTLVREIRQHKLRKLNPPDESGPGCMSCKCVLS

What is called Kd is the equilibrium constant for the complex coming apart. As for `CCOC[C@H]1C(=O)N[C@@H]([C@@H](C)CC)C(=O)N(C)CC(=O)N(C)[C@H]2C/C=C\CCN(C2=O)[C@@H](Cc2ccc(C)cc2)C(=O)N(C)CC(=O)N[C@@H](CCc2cc(F)c(C(F)(F)F)c(F)c2)C(=O)N2C[C@H](OCC)C[C@H]2C(=O)NC2(CC(C)(C)C2)C(=O)N(C)[C@@H](C2CCCC2)C(=O)N(C)[C@H](C(=O)N(CC)CC)CC(=O)N1C` [PP2408], the “NRAS/KRAS (ratio of KD value for NRAS to KD value for KRAS)” value in assay [1] is “A (a compound having 10 or more and less than 20 is denoted as A)”. In addition, the “HRAS/KRAS (ratio of KD value for HRAS to KD value for KRAS)” value in assay [2] was “A (a compound having 10 or more and less than 20 is denoted as A)”. In addition, the Kd in assay [3] (setting [5]) came out at 0.23 nM. This compound showed an IC50 in assay [4] of 21.3 nM.

On to `CCO[C@@H]1C[C@H]2C(=O)NC3(CCC3)C(=O)N(C)[C@@H](C3CCCC3)C(=O)N(C)[C@H](C(=O)N3CCCC3)CC(=O)N(C)[C@@H](C)C(=O)N[C@@H]([C@@H](C)CC)C(=O)N(C)CC(=O)N(C)[C@H]3C/C=C\CCN(C3=O)[C@@H](Cc3ccc(C(F)(F)F)cc3)C(=O)N(C)CC(=O)N[C@@H](CCc3cc(F)c(C(F)(F)F)c(F)c3)C(=O)N2C1` [PP1297, (2S,8S,12R,14S,20S,23S,27S,30S,36S,38Z)-20-cyclopentyl-8-[2-[3,5-difluoro-4-(trifluoromethyl)phenyl]ethyl]-12-ethoxy-4,19,22,26,27,32,35-heptamethyl-30-[(1S)-1-methylpropyl]-23-(pyrrolidine-1-carbonyl)-2-[[4-(trifluoromethyl)phenyl]methyl]spiro[1,4,7,10,16,19,22,26,29,32,35-undecazatricyclo[34.5.1.0^10,14]dotetracont-38-ene-17,1′-cyclobutane]-3,6,9,15,18,21,25,28,31,34,42-undecone], for which, in assay [1] (KD ratio class), the “NRAS/KRAS (ratio of KD value for NRAS to KD value for KRAS)” value is given as “AA (a compound having 20 or more is denoted as AA)”. Besides, the “HRAS/KRAS (ratio of KD value for HRAS to KD value for KRAS)” value in assay [2] (KD ratio class) is “A (a compound having 10 or more and less than 20 is denoted as A)”. The Kd in assay [3] (setting [6]) was 0.087 nM. In assay [4], this compound had an IC50 of 23.1 nM.

With `CCC[C@H]1C(=O)N[C@@H]([C@@H](C)CC)C(=O)N(C2CC2)CC(=O)N(C)[C@H]2C/C=C\CCN(C2=O)[C@@H](Cc2ccc(C)cc2)C(=O)N(C)CC(=O)N[C@@H](CCc2ccc(Cl)c(Cl)c2)C(=O)N2C[C@H](OC(C)C)C[C@H]2C(=O)NC2(CC(C)(C)C2)C(=O)N(C)[C@@H](C2CCCC2)C(=O)N(C)[C@H](C(=O)N(C)C)CC(=O)N1C` [PP2571], the “NRAS/KRAS (ratio of KD value with respect to GDP-bound NRAS wild-type protein to KD value with respect to KRAS)” value in assay [1] (SPR KD ratio NRAS/KRAS, class symbols) is “A (a compound having 10 or more and less than 20 is denoted as A)”. In addition, in assay [2] (SPR KD ratio HRAS/KRAS, class symbols), the “HRAS/KRAS (ratio of KD value with respect to GDP-bound HRAS wild-type protein to KD value with respect to KRAS)” value is “A (a compound having 10 or more and less than 20 is denoted as A)”. Besides, in assay [3] (SPR Single Cycle Kinetics, GDP-bound KRAS wild-type protein, 1:1 binding model, read-out: KRAS KD), the Kd stood at 1 nM. Moreover, the IC50 in assay [4] was 76.1 nM.

Regarding `CCOC[C@H]1C(=O)N[C@@H]([C@@H](C)CC)C(=O)N(C)CC(=O)N(C)[C@H]2C/C=C\CCN(C2=O)[C@@H](CC2CCC(F)(F)CC2)C(=O)N(C)CC(=O)N[C@@H](CCc2cc(F)c(C(F)(F)F)c(F)c2)C(=O)N2C[C@@H](C)C[C@H]2C(=O)NC2(CC(C)(C)C2)C(=O)N(C)[C@@H](C(CC)CC)C(=O)N(C)[C@H](C(=O)N(C)C)CC(=O)N1C` [PP2462], in assay [1], the “NRAS/KRAS (ratio of KD value for NRAS to KD value for KRAS)” value was “A (a compound having 10 or more and less than 20 is denoted as A)”. The “HRAS/KRAS (ratio of KD value for HRAS to KD value for KRAS)” value in assay [2] is “A (a compound having 10 or more and less than 20 is denoted as A)”. Further, the Kd in assay [3] (setting [5]) came out at 1.6 nM. In addition, in assay [4], the IC50 was found to be 87.2 nM.

As to `CCO[C@@H]1C[C@H]2C(=O)NC3(CC(C)(C)C3)C(=O)N(C)[C@@H](C3CCCC3)C(=O)N(C)[C@H](C(=O)N3CCCCC3)CC(=O)N(C)[C@H]3CCCCc4ccc(cc4)C[C@@H](C(=O)N(C)CC(=O)N[C@@H](CCc4ccc(C(F)(F)F)c(OC)c4)C(=O)N2C1)N1CC/C=C\C[C@@H](C1=O)N(C)C(=O)CN(C)C(=O)[C@H]([C@@H](C)CC)NC3=O` [PP3093, (1S,7S,11R,13S,19S,22S,26S,29S,35S,37Z)-19-cyclopentyl-11-ethoxy-7-[2-[3-methoxy-4-(trifluoromethyl)phenyl]ethyl]-3,3′,3′,18,21,25,31,34-octamethyl-29-[(1S)-1-methylpropyl]-22-(piperidine-1-carbonyl)spiro[3,6,9,15,18,21,25,28,31,34,41-undecazapentacyclo[24.15.9.2^43,46.1^35,41.0^9,13]tripentaconta-37,43(52),44,46(51)-tetraene-16,1′-cyclobutane]-2,5,8,14,17,20,24,27,30,33,53-undecone], in assay [1], the “NRAS/KRAS (ratio of KD value for NRAS to KD value for KRAS)” value was “A (a compound having 10 or more and less than 20 is denoted as A)”; the “ratio of the KD value with respect to GDP-bound NRAS wild-type protein to the KD value with respect to KRAS” value is “A (a compound having 10 or more and less than 20 is denoted as A)”. Besides, in assay [2], the “HRAS/KRAS (ratio of KD value for HRAS to KD value for KRAS)” value was “A (a compound having 10 or more and less than 20 is denoted as A)”; the “ratio of the KD value with respect to GDP-bound HRAS wild-type protein to the KD value with respect to KRAS” value is “A (a compound having 10 or more and less than 20 is denoted as A)”. Further, in assay [3] (setting [7]), the dissociation constant Kd was 0.097 nM. Further, the Kd in assay [3] (setting [5]) was 0.097 nM. Also, the IC50 in assay [4] (setting [8]) amounted to 3.2 nM.

As for `CCO[C@@H]1C[C@H]2C(=O)NC3(CCC3)C(=O)N(C)[C@@H](C3CCCC3)C(=O)N(C)[C@H](C(=O)N(C)C)CC(=O)N(C)[C@@H](CC)C(=O)N[C@@H]([C@@H](C)CC)C(=O)N(C)CC(=O)N(C)[C@H]3C/C=C\CCN(C3=O)[C@@H](Cc3ccc(C(F)(F)F)cc3)C(=O)N(C)CC(=O)N[C@@H](CCc3ccc4sccc4c3)C(=O)N2C1` [PP1255], the “NRAS/KRAS (ratio of KD value for NRAS to KD value for KRAS)” value in assay [1] (KD ratio class) is “A (a compound having 10 or more and less than 20 is denoted as A)”. For the same compound, the “HRAS/KRAS (ratio of KD value for HRAS to KD value for KRAS)” value in assay [2] (KD ratio class) was “A (a compound having 10 or more and less than 20 is denoted as A)”. Moreover, in assay [3] (setting [6]), the Kd was determined as 0.39 nM. In assay [4], this compound had an IC50 of 156 nM.

As to `CCC[C@H]1C(=O)N[C@@H]([C@@H](C)CC)C(=O)N(C)CC(=O)N(C)[C@H]2C/C=C\CCN(C2=O)[C@@H](Cc2ccc(C(F)(F)F)cc2)C(=O)N(C)CC(=O)N[C@@H](CCc2cc(F)c(C(F)(F)F)c(F)c2)C(=O)N2C[C@H](OCC)C[C@H]2C(=O)N(C)C2(CCC2)C(=O)N(C)[C@@H](C2CCCC2)C(=O)N(C)[C@H](C(=O)N2CCCCC2)CC(=O)N1C` [PP3118, (2S,8S,12R,14S,20S,23S,27S,30S,36S,38Z)-20-cyclopentyl-8-[2-[3,5-difluoro-4-(trifluoromethyl)phenyl]ethyl]-12-ethoxy-4,16,19,22,26,32,35-heptamethyl-30-[(1S)-1-methylpropyl]-23-(piperidine-1-carbonyl)-27-propyl-2-[[4-(trifluoromethyl)phenyl]methyl]spiro[1,4,7,10,16,19,22,26,29,32,35-undecazatricyclo[34.5.1.0^10,14]dotetracont-38-ene-17,1′-cyclobutane]-3,6,9,15,18,21,25,28,31,34,42-undecone], in assay [1], the “NRAS/KRAS (ratio of KD value for NRAS to KD value for KRAS)” value was “A (a compound having 10 or more and less than 20 is denoted as A)”; the “ratio of the KD value with respect to GDP-bound NRAS wild-type protein to the KD value with respect to KRAS” value is “A (a compound having 10 or more and less than 20 is denoted as A)”. In addition, in assay [2], the “HRAS/KRAS (ratio of KD value for HRAS to KD value for KRAS)” value was “B (a compound having 3 or more and less than 10 is denoted as B)”; the “ratio of the KD value with respect to GDP-bound HRAS wild-type protein to the KD value with respect to KRAS” value is “B (a compound having 3 or more and less than 10 is denoted as B)”. In addition, in assay [3] (setting [7]), the Kd was 0.12 nM. Further, in assay [3] (setting [5]), the Kd is 0.12 nM. The IC50 in assay [4] (setting [8]) was 6.7 nM.

Take `CCCOC[C@H]1C(=O)N[C@@H]([C@@H](C)CC)C(=O)N(C)CC(=O)N(C)[C@H]2C/C=C\CCN(C2=O)[C@@H](CC2CCCCC2)C(=O)N(C)CC(=O)N[C@@H](CCc2cc(F)c(C(F)(F)F)c(F)c2)C(=O)N2C[C@H](OCC)C[C@H]2C(=O)NC2(CC(C)(C)C2)C(=O)N(C)[C@@H](C(CC)CC)C(=O)N(C)[C@H](C(=O)N(C)C)CC(=O)N1C` [PP2501]: in assay [1], the “NRAS/KRAS (ratio of KD value for NRAS to KD value for KRAS)” value was “AA (a compound having 20 or more is denoted as AA)”. In addition, the “HRAS/KRAS (ratio of KD value for HRAS to KD value for KRAS)” value in assay [2] was “A (a compound having 10 or more and less than 20 is denoted as A)”. In addition, the Kd in assay [3] (setting [5]) worked out at 1.8 nM. The same compound had an IC50 in assay [4] of 180 nM.

For `CCOC[C@H]1C(=O)N[C@@H]([C@@H](C)CC)C(=O)N(C)CC(=O)N(C)[C@H]2C/C=C\CCN(C2=O)[C@@H](Cc2ccc(C)cc2)C(=O)N(C)CC(=O)N[C@@H](CCc2ccc(C(F)(F)F)c(OC)c2)C(=O)N2C[C@H](OCC)C[C@H]2C(=O)NC2(CC(C)(C)C2)C(=O)N(C)[C@@H](C2CCCC2)C(=O)N(C)[C@H](C(=O)N(C)CC)CC(=O)N1C` [PP2445], in assay [1], the “NRAS/KRAS (ratio of KD value for NRAS to KD value for KRAS)” value was “A (a compound having 10 or more and less than 20 is denoted as A)”. In addition, the “HRAS/KRAS (ratio of KD value for HRAS to KD value for KRAS)” value in assay [2] was “B (a compound having 3 or more and less than 10 is denoted as B)”. Besides, the Kd in assay [3] (setting [5]) was found to be 0.14 nM. Moreover, in assay [4], the IC50 was 11.7 nM.
